{"source": "paper PMC7952708", "about": "“In silico method for selecting residue pairs for single-molecule microscopy and spectroscopy” (Scientific Reports, 2021)", "assay_in_all_cases": "solution-based ALEX single-molecule FRET titration", "key": {"[1]": {"molecular_target": "T1, OpuAC (substrate-binding domain of OpuA) (Lactococcus lactis, UniProt Q7DAU8, D320C/K453C)", "T1 construct": "gene busAB", "T1 sequence (Q7DAU8 320-573 D320C/K453C)": "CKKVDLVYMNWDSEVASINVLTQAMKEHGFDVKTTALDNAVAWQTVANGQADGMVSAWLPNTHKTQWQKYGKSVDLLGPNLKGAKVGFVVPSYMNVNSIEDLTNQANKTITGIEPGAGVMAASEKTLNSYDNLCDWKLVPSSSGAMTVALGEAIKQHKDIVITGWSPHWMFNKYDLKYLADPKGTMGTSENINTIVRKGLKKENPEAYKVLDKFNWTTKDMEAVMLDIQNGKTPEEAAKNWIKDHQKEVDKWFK"}, "[2]": {"molecular_target": "T2, OpuAC (substrate-binding domain of OpuA) (Lactococcus lactis, UniProt Q7DAU8, K521C/T504C)", "T2 construct": "gene busAB", "T2 sequence (Q7DAU8 320-573 T504C/K521C)": "T1 sequence (Q7DAU8 320-573 D320C/K453C) with C1D, C134K, T185C, K202C"}, "[3]": {"molecular_target": "T3, OpuAC (substrate-binding domain of OpuA) (Lactococcus lactis, UniProt Q7DAU8, K566C/N414C)", "T3 construct": "gene busAB", "T3 sequence (Q7DAU8 320-573 N414C/K566C)": "T1 sequence (Q7DAU8 320-573 D320C/K453C) with C1D, N95C, C134K, K247C"}}, "note": "Residue numbers refer to the chain shown, from its start."}
{"smiles": "C[N+](C)(C)CC(=O)[O-]", "note": "[glycine betaine]", "values": [{"measurement": "Kd", "setting": "[1]", "result": "1 to 4", "unit": "µM"}, {"measurement": "Kd", "setting": "[2]", "result": 38, "unit": "µM"}, {"measurement": "Kd", "setting": "[3]", "result": "1 to 4", "unit": "µM"}]}
